Assay results from patent publication US20250295795A1, “PEPTIDE” (priority 2021, published 2025).
Entries after “also recorded” stand apart in the source; their conditions may differ. No end group written: not given here.

Columns and labels:
[1] = MTT assay of metabolic activity (cell viability); format: cell-based; conditions: human, HeLa cells, 1 μM for 60 min
Experimental: Toxicity is a concern with potent intracellular delivery agents. We used an MTT assay to measure the metabolic activity of Hela cells treated with 1 μM tri-Tat A or tri-cTat B for 60 min (FIG. 4d). […] Tri-Tat A is slightly more toxic, which is consistent with the observation that the trimer forms membrane pores (cells 84.4% viable, 4 h post-treatment; 80.2% viable, 3 days post-treatment). The favourable uptake mechanism and low toxicity of tri-cTat B lead us to investigate this agent for its potential to transport biomacromolecular cargos into cells.

HeLa cells [2] = experiment: Membrane integrity / porosity: propidium iodide uptake after trimer treatment; format: cell-based, human; conditions: 1 μM trimer; 40 μM PI added 20 min after trimer
Experimental: To assess membrane integrity, 40 μM propidium iodide (PI; a cell impermeable dye), was added to Hela cells 20 min after the addition of the peptide trimer.

HeLa cells [3] = experiment: Live cell confocal microscopy: cellular uptake and intracellular distribution of Tat conjugates in HeLa cells; format: cell-based, human; conditions: HeLa cells, 60 min, post-wash
Experimental: The cellular uptake and intracellular distribution of Tat-trimers and monomeric controls was investigated by performing live cell confocal microscopy of HeLa (human, cervical cancer) and CHO (Chinese hamster, […]). Following washing, images were acquired using a Zeiss 780 confocal microscope fitted with an incubation chamber (FIG. 2). In accordance with observations that free Tat in the cytosol readily enters the nucleus and strongly binds to nucleoli,^29 homogenous staining of cytoplasm and nucleoli were considered as indicative of cells having accumulated free conjugate, not confined to endosomes, for quantification purposes. […] The uptake and intracellular distribution of tri-Tat A is similar in live Hela and CHO cells (FIG. 2b,d,e).
Following washing, images were acquired using a Zeiss 780 confocal microscope fitted with an incubation chamber. In accordance with observations that free Tat in the cytosol readily enters the nucleus and strongly binds to nucleoli,^29 homogenous staining of cytoplasm and nucleoli were considered as indicative of cells having accumulated free conjugate, not confined to endosomes, for quantification purposes. The results were compared to tri-Tat A (8) and tri-cTat B (17).
(§1) HeLa and CHO cells were cultured in DMEM supplemented with 10% FBS and penicillin/streptomycin. For post-wash experiments, Tat conjugate was added to the cells in serum free medium, cells incubated at 37° C. in an atmosphere of 5% CO2, culture medium removed at the desired time point, cells washed and transferred to the microscope for imaging. For time course or pre-wash experiments, cells were transferred to the microscope (incubation chamber at 37° C., 5% CO2) and Tat conjugate added directly to cell medium and cells imaged at desired time points. Co-delivery experiments were conducted by adding peptide trimer immediately followed by cargo into serum free medium. Samples were visualised using a Zeiss LSM 780 inverted confocal microscope fitted with a XLmultiS1 incubation chamber and Plan-Apochromat 63×/1.40 Oil DIC M27 objective. Images were analysed using ImageJ software. Digital adjustments and image processing are consistent throughout the manuscript, unless otherwise stated in the figure legend. Statistical analysis was carried out using GraphPad Prism 7 software and all data used for statistical analysis consists of measurements from distinct cells. Where applicable a parametric, unpaired, two-tailed t-test was used for statistical testing.

HeLa cells [4] = experiment: Time course of uptake in Hela cells (continuous live cell confocal microscopy, ROI profile analysis); format: cell-based, human; conditions: 1 μM
Experimental: To better understand the mechanism by which tri-Tat A and tri-cTat B enter the cytosol and the nucleus, we investigated the uptake kinetics of the conjugates during the first 15 min after their addition to Hela cells using confocal live cell microscopy. Tri-Tat A (FIG. 3a) or tri-cTat B (FIG. 3b) (1 μM) were added to the cells and images acquired from 1 min to 15 min at 60 sec intervals. The two trimers show distinct uptake patters into Hela cells; to better understand the difference in uptake kinetics, we drew cross sectional profile plots through representative cells treated with tri-Tat A (FIG. 3c) and tri-cTat B (FIG. 3d). […] To investigate whether findings in individual cells also apply to larger populations, we extended the plot profile analysis by designating regions of interest (ROI) corresponding to plasma membrane, cytosol (excluding endosomes), nucleus, and nucleoli along the cross section, using information from brightfield images.^30 Average fluorescence intensities for each ROI, at each time point, in six cells per treatment group were calculated and plotted in FIGS. 3e-3h.
as §1

CHO cells = experiment: Live cell confocal microscopy: cellular uptake and intracellular distribution of Tat conjugates in CHO cells; format: cell-based, Chinese hamster; conditions: 60 min, post-wash
Experimental: The cellular uptake and intracellular distribution of Tat-trimers and monomeric controls was investigated by performing live cell confocal microscopy of HeLa (human, cervical cancer) and CHO (Chinese hamster, epithelial) cells incubated with Tat conjugates (1 μM) in serum-free DMEM (60 min). Following washing, images were acquired using a Zeiss 780 confocal microscope fitted with an incubation chamber (FIG. 2). In accordance with observations that free Tat in the cytosol readily enters the nucleus and strongly binds to nucleoli,^29 homogenous staining of cytoplasm and nucleoli were considered as indicative of cells having accumulated free conjugate, not confined to endosomes, for quantification purposes. […] The uptake and intracellular distribution of tri-Tat A is similar in live Hela and CHO cells (FIG. 2b,d,e).
as §1

HeLa cells [5] = experiment: Co-delivery of antibodies, antibody fragments and RFP into live Hela cells; format: cell-based, human; conditions: 1 μM peptide
Excerpt: Access to the cytosol by mechanisms that are independent of transmembrane pore formation constitutes a preferred method of co-delivery due to reduced toxicity to the cell. […] Successful delivery of Fab is indicated by homogenous distribution of AF647 signal in the cytosol and nucleus and is only observed in cells which have been transduced with tri-cTat B (FIG. 13). Time course of Fab uptake by tri-cTat B (FIG. 5c) follows a similar pattern as tri-cTat B alone (FIG. 3b, d). Tri-cTat B and Fab form large vesicle-like bodies that appear to release their contents into the cytosol of the cell; unambiguous cytosolic staining by Fab is observed from 23 min. Interaction between peptide trimer and biomacromolecule, mediated by charge-charge interactions is essential for the accumulation of both in endosomes and subsequent release and delivery of cargo into cells. Delivery of relatively β-sheet rich, neutrally charged recombinant RFP was unsuccessful (FIG. 16) due to a lack of association between tri-cTat B and cargo (FIG. 17). On the other hand, interaction diminishes the efficacy of the peptide trimer due to charge masking, emphasising the need to maintain an appropriate peptide to cargo ratio for a given macromolecule. Experiments to explore the efficacy of tri-cTat B in the presence of serum supplemented medium underline this principle; while tri-cTat B continues to function in the presence of serum, the number of transduced cells diminishes (42% (serum) vs. 61% (serum free)), but can be restored by increasing tri-cTat B concentration to 2 μM (79% (serum); FIG. 15). […] This is likely due to the larger size of antibodies and also to the observation that antibodies have a greater tendency to aggregate in the presence of tri-cTat B compared to Fab fragments. […] Finally, we investigated whether it is possible to deliver functional antibodies and antibody fragments into the cytosol and nuclei of cells. β-actin was chosen as a proof-of-principle protein because of its abundance in the cell and formation of distinctive subcellular filaments. To clearly identify actin filaments, Hela cells were transfected with red fluorescent protein fused to actin (actin-RFP) before being incubated with β-actin antibody (mouse IgG2b) or β-actin Fab fragment (mouse) conjugated to AF647 plus tri-cTat B for 30 min. After washing, cells were left for 60 min to allow IgG/Fab to bind to actin filaments. […] To enable objective quantification of co-localization between β-actin filaments and IgG/Fab fragment (white arrows), a co-localization threshold algorithm was used in selected regions of interest (ROI). Pearson's and Manders' coefficients were obtained under Costes' automatic threshold^32 and the co-localized pixels are shown as a mask of yellow pixels of constant intensity (co-localization panels). The significance of the co-localization parameters (Pearson's and Manders' coefficients) was evaluated using the confined displacement algorithm (CDA).
as §1, with “Statistical analysis was carried out using GraphPad Prism 7 software and all data used for statistical analysis consists of measurements from distinct cells. Where applicable a parametric, unpaired, two-tailed t-test was used for statistical testing.” left out

Compound	viability at 4 h, 1 µM ([1]; 4 h post-treatment)	viability at 72 h, 1 µM ([1]; 3 days post-treatment)	propidium iodide (PI) uptake / pore formation (HeLa cells [2])	cellular uptake and intracellular distribution (HeLa cells [3]; 1 μM, serum-free DMEM)	time after which cytosolic signal increases rapidly (HeLa cells [4])	cytosolic signal relative to tri-cTat B (factor) (HeLa cells [4]; at 15 min, p<0.05)	association with plasma membrane (profile plots) (HeLa cells [4]; representative cells)	association with the plasma membrane relative to tri-cTat B (HeLa cells [4]; t=1 to 15 min, p<0.05)	cellular uptake and intracellular distribution (CHO cells; 1 μM, serum-free DMEM)	cellular uptake of Fab in the presence of the peptide (HeLa cells [5]; Fab-AF647, 30 min)	cellular uptake of IgG in the presence of the peptide (HeLa cells [5]; IgG-AF647, 45 min)	cellular uptake and intracellular distribution (HeLa cells [3]; 10 μM)	cellular uptake and intracellular distribution (CHO cells; 10 μM)
N=C(N)NCCC[C@H](NC(=O)[C@H](CCCNC(=N)N)NC(=O)[C@H](CCCNC(=N)N)NC(=O)[C@H](CCC(N)=O)NC(=O)[C@H](CCCNC(=N)N)NC(=O)[C@H](CCCNC(=N)N)NC(=O)[C@H](CCCCN)NC(=O)[C@H](CCCCN)NC(=O)[C@H](CCCNC(=N)N)NC(=O)CCCc1cn(CC(Cn2cc(CCCC(=O)N[C@@H](CCCNC(=N)N)C(=O)N[C@@H](CCCCN)C(=O)N[C@@H](CCCCN)C(=O)N[C@@H](CCCNC(=N)N)C(=O)N[C@@H](CCCNC(=N)N)C(=O)N[C@@H](CCC(N)=O)C(=O)N[C@@H](CCCNC(=N)N)C(=O)N[C@@H](CCCNC(=N)N)C(=O)N[C@@H](CCCNC(=N)N)C(N)=O)nn2)(Cn2cc(CCCC(=O)N[C@@H](CCCNC(=N)N)C(=O)N[C@@H](CCCCN)C(=O)N[C@@H](CCCCN)C(=O)N[C@@H](CCCNC(=N)N)C(=O)N[C@@H](CCCNC(=N)N)C(=O)N[C@@H](CCC(N)=O)C(=O)N[C@@H](CCCNC(=N)N)C(=O)N[C@@H](CCCNC(=N)N)C(=O)N[C@@H](CCCNC(=N)N)C(N)=O)nn2)Cn2cc(CNC(=O)c3ccc4c(c3)C(=O)OC43c4ccc(N)c(S(=O)(=O)O)c4Oc4c3ccc(N)c4S(=O)(=O)O)nn2)nn1)C(N)=O (some centres unmarked) [tri-Tat A]	84.4%	80.2%	significantly higher; also recorded: co-stain with PI	homogenous cytosolic uptake and nucleolar staining; also recorded: taken up into the cytosol and nucleoli	~12 min	2	initial strong association	approximately three	homogenous cytosolic uptake and nucleolar staining; also recorded: taken up into the cytosol and nucleoli	–	–	–	–
mono-Tat: monomeric control: linear Tat (49-57) peptide labelled with AF488 (RKKRRQRRR; also: AF488 label, place not given here; UniProt P04608 49-57, looked up, fragment)	–	–	–	not taken up	–	–	–	–	not taken up	no cellular uptake	no cellular uptake	no cytosolic uptake or nucleolar staining; also recorded: taken up only into endosomes	no cytosolic uptake or nucleolar staining; also recorded: taken up only into endosomes
tri-Tat B: AF488-labelled trimer of linear Tat (49-57) peptide on alkyne functionalized scaffold B (RKKRRQRRR; also: trimer on alkyne functionalized scaffold B, AF488 label, place not given here; UniProt P04608 49-57, looked up, fragment)	–	–	–	no evidence of cytosolic uptake or nucleolar staining; also recorded: only taken up into endosomes	–	–	–	–	no evidence of cytosolic uptake or nucleolar staining; also recorded: only taken up into endosomes	–	–	–	–
